Columns and labels:
Alpha2A = Alpha2A (Homo sapiens, UniProt P08913); assay: NIMH PDSP radioligand binding, Alpha2A
Procedure: (§1) Radioligands and concentrations used for additional 45 CNS receptor binding assays are listed as supporting information (S1 Table). This work was performed by the National Institute of Mental Health Psychoactive Drug Screening Program (NIMH PDSP) as described previously.[26] Briefly target compounds were dissolved in DMSO and subjected to a primary screen at 10,000 nM concentration. […] Additional experimental details are available in the NIMH PDSP assay protocol book.

NMDA receptor = assay: NMDA receptor-mediated fEPSP (NMDAR-fEPSP) in CA1 of hippocampal slices; format: cell-based, rat; settings: 10 μM
Procedure: (§2) Male Wistar rats (Crl:Wi; Charles River, UK) aged 9–10 wk were sacrificed by neck vertebral dislocation (schedule 1 method) according to the United Kingdom (Scientific Procedures) Act of 1986. […] The brain was cut parasagittally into 400 μm sections and hippocampal slices were removed, stored and placed in a submerged recording chamber at 28–30°C. Recordings of synaptic activity were made, analyzed and presented as described. A bipolar electrode was used to deliver stimuli (0.03 Hz) to the Schaffer collateral pathway to enable recording of field excitatory synaptic potentials (fEPSPs) using a glass microelectrode positioned in the stratum radiatum of area CA1. […] After 30 min of stable control responses, 1 and 10 μM solutions of the individual compounds were added to the perfusate for 3–12 h while recording the amplitude and area of the NMDAR-fEPSP on-line using WinLTP [31]. Single exponential curves were fitted to the graphs and curves extrapolated to show likely half-times and minimum plateau responses achieved with each concentration of the compounds. Raw data for all fEPSP experiments are provided as supporting information (S2, S3 and S4 Files).

AMPA receptor = assay: AMPA receptor-mediated fEPSP in hippocampal slices (2-MXP selectivity); format: cell-based, rat
Procedure: as §2
To examine the specificity of DPH analogues, 2-MXP was superfused at 50 (n = 2) and 100 μM (n = 1) in the absence of AMPA and GABA receptor antagonists (Fig 3C).

Alpha2B = Alpha2B (Homo sapiens, UniProt P18089); assay: NIMH PDSP radioligand binding, Alpha2B
Chain of Alpha2B (P18089 whole entry): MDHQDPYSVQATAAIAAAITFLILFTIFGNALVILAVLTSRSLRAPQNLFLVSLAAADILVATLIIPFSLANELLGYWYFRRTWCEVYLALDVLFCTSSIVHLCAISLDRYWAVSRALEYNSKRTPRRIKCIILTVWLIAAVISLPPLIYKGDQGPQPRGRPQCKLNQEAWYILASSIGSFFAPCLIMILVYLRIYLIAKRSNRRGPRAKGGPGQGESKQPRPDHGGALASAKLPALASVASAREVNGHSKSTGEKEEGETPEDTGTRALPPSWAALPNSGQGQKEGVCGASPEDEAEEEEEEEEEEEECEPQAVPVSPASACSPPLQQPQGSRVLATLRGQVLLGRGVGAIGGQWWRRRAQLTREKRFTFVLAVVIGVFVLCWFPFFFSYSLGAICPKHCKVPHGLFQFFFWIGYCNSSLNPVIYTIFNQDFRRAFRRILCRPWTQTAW
Procedure: as §1

H3 = H3 (Homo sapiens, UniProt Q9Y5N1); assay: NIMH PDSP radioligand binding, H3
Chain of H3 (Q9Y5N1 whole entry): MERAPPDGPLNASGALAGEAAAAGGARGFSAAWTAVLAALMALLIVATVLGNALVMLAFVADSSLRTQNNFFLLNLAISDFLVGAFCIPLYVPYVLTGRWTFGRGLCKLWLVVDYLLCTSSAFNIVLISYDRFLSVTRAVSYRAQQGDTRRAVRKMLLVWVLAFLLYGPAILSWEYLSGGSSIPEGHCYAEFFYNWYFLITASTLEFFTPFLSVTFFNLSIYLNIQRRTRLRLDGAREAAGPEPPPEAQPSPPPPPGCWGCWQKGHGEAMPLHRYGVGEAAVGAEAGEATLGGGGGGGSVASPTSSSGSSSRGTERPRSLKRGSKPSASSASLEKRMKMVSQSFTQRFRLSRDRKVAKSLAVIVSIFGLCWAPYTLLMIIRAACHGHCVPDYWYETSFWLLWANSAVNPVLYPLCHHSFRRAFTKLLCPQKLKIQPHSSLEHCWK
Procedure: as §1

M1 = M1 (Homo sapiens, UniProt P11229); assay: NIMH PDSP radioligand binding, M1
Chain of M1 (P11229 whole entry): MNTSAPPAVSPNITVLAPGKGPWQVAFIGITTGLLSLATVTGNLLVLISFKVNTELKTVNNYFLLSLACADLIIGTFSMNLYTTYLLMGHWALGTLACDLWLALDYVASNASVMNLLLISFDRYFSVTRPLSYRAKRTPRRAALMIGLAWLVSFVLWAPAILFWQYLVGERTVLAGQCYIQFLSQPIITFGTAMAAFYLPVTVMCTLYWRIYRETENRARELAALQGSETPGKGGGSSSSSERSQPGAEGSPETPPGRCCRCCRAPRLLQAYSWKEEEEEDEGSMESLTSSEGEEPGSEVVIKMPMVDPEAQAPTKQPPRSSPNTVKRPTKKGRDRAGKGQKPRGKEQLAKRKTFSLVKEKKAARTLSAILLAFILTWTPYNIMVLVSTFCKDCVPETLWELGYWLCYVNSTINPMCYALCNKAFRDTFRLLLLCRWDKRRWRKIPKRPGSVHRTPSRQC

M2 = M2 (Homo sapiens, UniProt P08172); assay: NIMH PDSP radioligand binding, M2
Chain of M2 (P08172 whole entry): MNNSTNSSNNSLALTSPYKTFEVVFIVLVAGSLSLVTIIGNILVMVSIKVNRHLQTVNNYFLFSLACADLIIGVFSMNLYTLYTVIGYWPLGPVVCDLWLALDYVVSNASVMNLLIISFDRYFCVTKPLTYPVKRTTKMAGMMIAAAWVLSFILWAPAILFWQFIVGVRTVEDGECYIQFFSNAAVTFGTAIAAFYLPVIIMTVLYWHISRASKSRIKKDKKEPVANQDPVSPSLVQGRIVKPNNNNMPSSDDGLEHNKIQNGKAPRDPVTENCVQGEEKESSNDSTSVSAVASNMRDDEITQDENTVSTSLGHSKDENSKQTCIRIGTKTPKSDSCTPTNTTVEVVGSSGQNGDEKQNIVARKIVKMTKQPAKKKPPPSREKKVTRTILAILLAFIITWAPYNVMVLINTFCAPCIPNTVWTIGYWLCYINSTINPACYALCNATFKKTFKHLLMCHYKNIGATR

NET = NET (Homo sapiens, UniProt P23975); assay: NIMH PDSP radioligand binding, NET
Chain of NET (P23975 whole entry): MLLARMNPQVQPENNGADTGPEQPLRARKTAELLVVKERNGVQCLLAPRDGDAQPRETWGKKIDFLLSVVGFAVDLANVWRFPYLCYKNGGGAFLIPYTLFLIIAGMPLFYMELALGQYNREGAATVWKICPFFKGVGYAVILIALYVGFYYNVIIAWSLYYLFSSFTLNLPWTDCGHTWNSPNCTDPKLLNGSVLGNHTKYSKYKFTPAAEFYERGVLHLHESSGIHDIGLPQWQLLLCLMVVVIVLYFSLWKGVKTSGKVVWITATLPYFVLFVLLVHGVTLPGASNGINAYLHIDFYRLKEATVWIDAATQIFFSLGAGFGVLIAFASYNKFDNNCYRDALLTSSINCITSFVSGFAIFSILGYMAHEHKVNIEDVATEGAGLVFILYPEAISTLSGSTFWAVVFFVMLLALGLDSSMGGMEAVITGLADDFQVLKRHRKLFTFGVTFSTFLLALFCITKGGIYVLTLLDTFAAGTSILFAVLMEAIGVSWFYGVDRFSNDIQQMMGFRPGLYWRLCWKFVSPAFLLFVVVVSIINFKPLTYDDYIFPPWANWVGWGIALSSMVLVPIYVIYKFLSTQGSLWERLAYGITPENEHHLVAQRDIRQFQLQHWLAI
Procedure: as §1

Chain of Alpha2A (P08913 whole entry): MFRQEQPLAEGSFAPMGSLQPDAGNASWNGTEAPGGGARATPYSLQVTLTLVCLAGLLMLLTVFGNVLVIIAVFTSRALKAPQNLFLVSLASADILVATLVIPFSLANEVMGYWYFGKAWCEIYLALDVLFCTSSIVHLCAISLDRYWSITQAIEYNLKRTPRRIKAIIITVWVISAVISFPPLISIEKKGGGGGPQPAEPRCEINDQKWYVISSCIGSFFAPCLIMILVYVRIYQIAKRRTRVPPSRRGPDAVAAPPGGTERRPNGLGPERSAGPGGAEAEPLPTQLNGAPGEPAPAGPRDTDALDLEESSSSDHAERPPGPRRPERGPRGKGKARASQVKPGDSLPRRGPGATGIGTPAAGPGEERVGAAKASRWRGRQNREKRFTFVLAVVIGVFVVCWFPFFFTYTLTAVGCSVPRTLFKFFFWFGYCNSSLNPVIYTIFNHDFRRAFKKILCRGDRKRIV

COc1ccccc1C(Cc1ccccc1)N1CCCCC1 (stereo not drawn) [2-MXP, 2-methoxydiphenidine]
Ki (Alpha2A): 2000 nM
effect on NMDAR-fEPSP (NMDA receptor): abolished
effect on AMPA receptor-mediated fEPSP (AMPA receptor; 50 and 100 μM, without AMPA and GABA receptor antagonists): No reduction of the AMPA receptor-mediated fEPSP was seen
potency as antagonist of NMDAR relative to AMPA receptor responses (AMPA receptor; hippocampal slices): > 50 times

c1ccc(CC(c2ccccc2)N2CCCCC2)cc1 (stereo not drawn) [DPH, diphenidine]
Ki (Alpha2B): 4380 nM
Ki (H3): 1020 nM
Ki (M1): 2650 nM
Ki (M2): 3700 nM
Ki (NET): 2810 nM

Source: article PMC4912077 (PLoS ONE, 2016)
